The subject of one series is SARS-CoV-2. The series is classed as cell-based. Further details: unit not given here.
The target of a further series is T1, HGFA (Homo sapiens, UniProt Q04756).
T1 construct: purchased R&D Systems 1514-SE-010
T1 sequence (Q04756 408-655 limits assumed): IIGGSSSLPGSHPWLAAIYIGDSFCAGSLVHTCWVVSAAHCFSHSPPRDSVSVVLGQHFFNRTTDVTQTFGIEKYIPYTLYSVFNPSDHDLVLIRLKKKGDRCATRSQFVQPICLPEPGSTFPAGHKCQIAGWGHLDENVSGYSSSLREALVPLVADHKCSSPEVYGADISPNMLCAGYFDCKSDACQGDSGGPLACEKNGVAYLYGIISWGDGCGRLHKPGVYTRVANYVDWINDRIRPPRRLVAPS
T1 sequence (Q04756 373-407 partner limits assumed): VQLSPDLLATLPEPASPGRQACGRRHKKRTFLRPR
The series can be described thus: Fluorogenic kinetic enzyme inhibitor assay, HGFA. The series is classed as biochemical.

A further series addresses TMPRSS2 (Homo sapiens, UniProt O15393). The series can be described thus: Fluorogenic kinetic enzyme inhibitor assay, TMPRSS2. It counts as biochemical. More on the design: purchased Cusabio Technology CSB-YP023924HU.
Another series has as its target T2, Factor Xa (Homo sapiens, UniProt P00742).
T2 construct: TMPRSS2; Matriptase; Hepsin; HGFA; Thrombin; Factor Xa
As to the kind of experiment: Fluorogenic assay, Factor Xa. It counts as biochemical. Conditions: read-out: Factor Xa IC50.

For the next series, the target named is T3, matriptase (Homo sapiens, UniProt Q9Y5Y6).
T3 construct: purchased R&D Systems 3946-SEB-010
T3 sequence (Q9Y5Y6 615-855 limits assumed): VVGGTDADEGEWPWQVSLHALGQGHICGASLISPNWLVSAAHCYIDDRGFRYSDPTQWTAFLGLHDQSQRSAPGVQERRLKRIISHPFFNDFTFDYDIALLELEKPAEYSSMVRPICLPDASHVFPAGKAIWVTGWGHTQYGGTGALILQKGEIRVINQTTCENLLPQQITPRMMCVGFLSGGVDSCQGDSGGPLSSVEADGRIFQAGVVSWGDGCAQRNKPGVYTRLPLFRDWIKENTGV
As to the kind of experiment: Fluorogenic kinetic enzyme inhibitor assay, matriptase. The series is classed as biochemical.

The target in the next series is T4, hepsin (Homo sapiens, UniProt P05981).
T4 construct: purchased R&D Systems 4776-SE-010
T4 sequence (P05981 163-417 limits assumed): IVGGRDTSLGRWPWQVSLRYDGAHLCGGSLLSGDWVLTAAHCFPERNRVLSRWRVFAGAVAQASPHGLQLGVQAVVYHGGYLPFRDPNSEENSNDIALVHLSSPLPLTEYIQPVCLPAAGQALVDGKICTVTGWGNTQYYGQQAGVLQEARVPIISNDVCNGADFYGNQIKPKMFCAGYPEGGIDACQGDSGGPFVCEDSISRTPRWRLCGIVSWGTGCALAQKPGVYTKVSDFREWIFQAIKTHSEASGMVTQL
T4 sequence (P05981 1-162 partner limits assumed): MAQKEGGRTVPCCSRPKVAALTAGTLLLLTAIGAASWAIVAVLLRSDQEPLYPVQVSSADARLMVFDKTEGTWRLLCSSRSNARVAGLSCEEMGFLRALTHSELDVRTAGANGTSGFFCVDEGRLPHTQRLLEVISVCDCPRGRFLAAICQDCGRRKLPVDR
The series can be described thus: Fluorogenic kinetic enzyme inhibitor assay, hepsin. The series is classed as biochemical.

For another series, the target named is Thrombin (Homo sapiens, UniProt P00734). As to the kind of experiment: Fluorogenic assay, thrombin. The series is classed as biochemical.
Setting [1] is: 30 min incubation, Boc-QLR-AMC at Km, read-out: HGFA IC50.
The mark [2] stands for this setting: 30 min incubation, Boc-QAR-AMC at Km, read-out: TMPRSS2 IC50.
The mark [3] stands for this setting: 30 min incubation, Boc-QAR-AMC at Km, read-out: Matriptase IC50.
[4] abbreviates: 30 min incubation, Boc-QAR-AMC at Km, read-out: Hepsin IC50.

Where two headings read alike, the source gives them in different places. Numbered stars: 1 amine (or outer) side, 2 acyl side, 3 side chain; on linkers, the order of the positions; unused ones are H or OH. Square brackets hold non-standard residues; d marks the D form. Peptide text beside a SMILES is read from it. X1 = N=C(N)NCCC[C@H](N[*:1])C(=O)c1nc2ccc(C(=O)[*:2])cc2s1

One may read the IC50 as the concentration needed to halve the response being measured.

Sequence of TMPRSS2 (O15393 106-492 limits assumed): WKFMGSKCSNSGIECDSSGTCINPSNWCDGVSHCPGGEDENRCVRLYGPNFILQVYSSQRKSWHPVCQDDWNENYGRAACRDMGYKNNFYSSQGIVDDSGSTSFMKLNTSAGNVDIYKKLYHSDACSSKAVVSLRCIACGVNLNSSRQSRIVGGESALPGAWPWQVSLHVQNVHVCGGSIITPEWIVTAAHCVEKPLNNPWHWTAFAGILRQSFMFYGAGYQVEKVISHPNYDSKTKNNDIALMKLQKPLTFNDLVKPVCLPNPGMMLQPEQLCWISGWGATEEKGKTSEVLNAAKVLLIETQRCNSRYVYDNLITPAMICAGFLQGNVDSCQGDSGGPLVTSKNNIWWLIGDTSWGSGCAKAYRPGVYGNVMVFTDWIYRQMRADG
T2 sequence (P00742 235-488 limits assumed): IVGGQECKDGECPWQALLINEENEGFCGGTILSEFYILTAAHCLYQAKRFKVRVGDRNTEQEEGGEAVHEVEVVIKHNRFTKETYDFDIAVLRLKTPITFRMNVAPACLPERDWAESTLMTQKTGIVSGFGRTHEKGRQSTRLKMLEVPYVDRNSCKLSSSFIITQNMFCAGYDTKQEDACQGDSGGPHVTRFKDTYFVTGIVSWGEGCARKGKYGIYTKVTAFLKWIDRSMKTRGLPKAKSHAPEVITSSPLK
T2 sequence (P00742 41-179 partner limits assumed): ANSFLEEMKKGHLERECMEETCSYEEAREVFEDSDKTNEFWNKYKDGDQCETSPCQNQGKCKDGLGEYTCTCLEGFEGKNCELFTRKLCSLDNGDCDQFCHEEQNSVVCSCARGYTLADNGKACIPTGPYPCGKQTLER

Under “from CC(=O)N[C@@H](CC(=O)O)C(=O)N[C@@H](CC(C)C)C(=O)N[C@@H](CCCCN)C(=O)O, amide bond, EDCI/HOBt/iPr2NEt, DMF, 21.25 mM, 25.0 °C, 16.0 h, 9 steps”, `CC(=O)N[C@H]1CC(=O)NCCCC[C@@H](C(=O)O)NC(=O)[C@H](CC(C)C)NC1=O` had a ring closure, yield of all isomers of 59.1%.
For the setting “from C=CCOc1ccc(C[C@H](NC(C)=O)C(=O)N[C@@H](CC(C)C)C(=O)N[C@@H](CC=C)C(=O)OC)cc1, rcm bond, Grubbs 2nd generation catalyst, DCM, 1.28 mM, 40.0 °C, 18.0 h”, `COC(=O)[C@@H]1CC=CCOc2ccc(cc2)C[C@H](NC(C)=O)C(=O)N[C@@H](CC(C)C)C(=O)N1` [Ac-cyclo-(L) Tyr-Leu-allyl-OMe] showed a ring closure, yield of all isomers of 65%.
For `CC(=O)N[C@H]1CC(=O)NCCCC[C@@H](C(=O)N[C@@H](CCCNC(=N)N)C(=O)c2nc3ccccc3s2)NC(=O)[C@H](CC(C)C)NC1=O` [VD2173, Ac-Cyclo(DLK)—R-ketobenzothiazole], the “SARS-CoV-2 Calu-3- titer (0.01 uM)” value with SARS-CoV-2 is on record as 11. Further, the “SARS-CoV-2 Calu-3 titer (0.1 uM)” value with SARS-CoV-2 came out at 17. The “SARS-CoV-2 Calu-3 titer (1 uM)” value in the series on SARS-CoV-2 was found to be 57. Also, the IC50 came out at 8520 nM at HGFA (read-out: HGFA IC50); 2.14 nM against TMPRSS2; 2050 nM at Factor Xa; 2.6 nM at matriptase (read-out: Matriptase IC50); 19 nM at hepsin (read-out: Hepsin IC50); 8140 nM against Thrombin.
In the case of `CC(=O)N[C@H]1Cc2ccc(cc2)OCCCC[C@@H](C(=O)N[C@@H](CCCNC(=N)N)C(=O)c2nc3ccccc3s2)NC(=O)[C@H](CC(C)C)NC1=O` [VD4072, N-[(S)-1-[(1,3-benzothiazol-2-yl)carbonyl]-4-guanidinobutyl]-(7S,10S,13S)-13-acetylamino-10-isobutyl-9,12-dioxo-2-oxa-8,11-diazabicyclo[13.2.2]nonadeca-1(17),15,18-triene-7-carboxamide], the IC50 is 40 nM on HGFA (setting [1]); 9.79 nM at TMPRSS2 (setting [2]); 2650 nM at Factor Xa; 32 nM at matriptase (setting [3]); 0.91 nM at hepsin (setting [4]); > 20000 nM against Thrombin.
Consider `CC(=O)N[C@H]1CCCCn2cc(nn2)C[C@H](C(=O)N[C@@H](CCCNC(=N)N)C(=O)c2nc3ccccc3s2)NC(=O)[C@H](CC(C)C)NC1=O` [VD4118B, N-[(S)-1-[(1,3-benzothiazol-2-yl)carbonyl]-4-guanidinobutyl]-(6S,9S,12R)-6-acetylamino-9-isobutyl-7,10-dioxo-1,8,11,15,16-pentaazabicyclo[12.2.1]heptadeca-14(17),15-diene-12-carboxamide], for which the IC50 was 10900 nM on HGFA (setting [1]); 14.9 nM on TMPRSS2 (setting [2]); 9540 nM at Factor Xa; 91.2 nM on matriptase (setting [3]); 137 nM at hepsin (setting [4]); > 20000 nM on Thrombin.
As to `CC(=O)N[C@H]1Cc2ccc(cc2)OCCCC[C@@H](C(=O)N[C@@H](CCCNC(=N)N)C(=O)c2nc3ccccc3s2)NC(=O)[C@H](Cc2c[nH]c3ccccc23)NC1=O` [VD4158, N-[(S)-1-[(1,3-benzothiazol-2-yl)carbonyl]-4-guanidinobutyl]-(7S,10S,13S)-13-acetylamino-10-[(3-indolyl)methyl]-9,12-dioxo-2-oxa-8,11-diazabicyclo[13.2.2]nonadeca-1(17),15,18-triene-7-carboxamide], the IC50 at HGFA (setting [1]) was 85.2 nM; on TMPRSS2 (setting [2]) it was 15.8 nM; at Factor Xa it was 9530 nM; at matriptase (setting [3]), 56.8 nM; against hepsin, 2.84 nM; at Thrombin it was > 20000 nM.
As to `CC(=O)N[C@H]1Cc2ccc(cc2)OC/C=C\C[C@@H](C(=O)N[C@@H](CCCNC(=N)N)C(=O)c2nc3ccccc3s2)NC(=O)[C@@H](Cc2c[nH]c3ccccc23)NC1=O` [VD5027, N-[(S)-1-[(1,3-benzothiazol-2-yl)carbonyl]-4-guanidinobutyl]-(4Z,7S,10R,13S)-13-acetylamino-10-[(3-indolyl)methyl]-9,12-dioxo-2-oxa-8,11-diazabicyclo[13.2.2]nonadeca-1(17),4,15,18-tetraene-7-carboxamide], the IC50 at HGFA (setting [1]) came to 4.58 nM; on TMPRSS2 (setting [2]), 0.978 nM; at Factor Xa, 1360 nM; on matriptase (setting [3]), 5.68 nM; on hepsin (setting [4]), 0.693 nM; at Thrombin it was 19900 nM.
On to `CC(=O)N[C@H]1Cc2ccc(cc2)Oc2cccc(c2)C[C@@H](C(=O)N[C@@H](CCCNC(=N)N)C(=O)c2nc3ccccc3s2)NC(=O)[C@H](CC(C)C)NC1=O` [VD5064B, N-[(S)-1-[(1,3-benzothiazol-2-yl)carbonyl]-4-guanidinobutyl]-(9S,12S,15S)-15-acetylamino-12-isobutyl-11,14-dioxo-2-oxa-10,13-diazatricyclo[15.2.2.1^3,^7]docosa-1(19),3,5,7(22),17,20-hexaene-9-carboxamide], for which the IC50 was 61.4 nM at HGFA (setting [1]); 11 nM on TMPRSS2 (setting [2]); 955 nM at Factor Xa; 90 nM at matriptase (read-out: Matriptase IC50); 0.168 nM on hepsin (read-out: Hepsin IC50); > 20000 nM on Thrombin.
On to `CC(=O)N[C@@H](CO)C(=O)N[C@@H](CCCCN)C(=O)N[C@@H](Cc1ccccc1)C(=O)N[C@@H](CCCNC(=N)N)C(=O)c1nccs1` [ZFH6095, N-[(S)-1-[N-(S)-4-guanidino-1-[(1,3-thiazol-2-yl)carbonyl]butylcarbamoyl]-2-phenylethyl](S)-2-[(S)-2-acetylamino-3-hydroxypropionylamino]-6-aminohexanamide], for which the IC50 at HGFA was 114 nM; at TMPRSS2 (read-out: TMPRSS2 IC50) it was 7.89 nM; on Factor Xa it was 1060 nM; against matriptase, 6.1 nM; at hepsin (read-out: Hepsin IC50), 17 nM; against Thrombin, > 20000 nM.
`CC(=O)N[C@@H](CCCCN)C(=O)N[C@@H](CCC(N)=O)C(=O)N[C@@H](Cc1ccccc1)C(=O)N[C@@H](CCCNC(=N)N)C(=O)c1nccs1` [ZFH6101, N-[(S)-1-[N-(S)-4-guanidino-1-[(1,3-thiazol-2-yl)carbonyl]butylcarbamoyl]-2-phenylethyl](S)-2-[(S)-1-acetylamino-5-aminopentylcarbonylamino] glutaramide]: the IC50 on HGFA (read-out: HGFA IC50) was 116 nM; at TMPRSS2 (read-out: TMPRSS2 IC50), 28.9 nM; at Factor Xa, 158 nM; at matriptase, 1.4 nM; on hepsin (read-out: Hepsin IC50) it was 1.2 nM; against Thrombin it was > 20000 nM.
With `CC(=O)N[C@@H](Cc1ccccc1)C(=O)N[C@@H](CC(C)C)C(=O)N[C@@H](Cc1ccccc1)C(=O)N[C@@H](CCCNC(=N)N)C(=O)c1nc2ccccc2s1` [ZFH7063, N-[(S)-1-[N-(S)-1-[(1,3-benzothiazol-2-yl)carbonyl]-4-guanidinobutylcarbamoyl]-2-phenylethyl](S)-2-[(S)-2-acetylamino-3-phenylpropionylamino]-4-methylvaleramide], the IC50 is 228 nM at HGFA; 3 nM on TMPRSS2 (read-out: TMPRSS2 IC50); 26 nM at Factor Xa; 7.2 nM against matriptase; 2.9 nM at hepsin; > 20000 nM at Thrombin.
`CC(=O)N[C@@H](Cc1c[nH]c2ccccc12)C(=O)N[C@@H](CC(C)C)C(=O)N[C@@H](Cc1ccccc1)C(=O)N[C@@H](CCCNC(=N)N)C(=O)c1nc2ccccc2s1` [ZFH7064, N-[(S)-1-[N-(S)-1-[(1,3-benzothiazol-2-yl)carbonyl]-4-guanidinobutylcarbamoyl]-2-phenylethyl](S)-2-[(S)-2-acetylamino-3-(3-indolyl)propionylamino]-4-methylvaleramide]: the IC50 against HGFA is 266 nM; on TMPRSS2 (read-out: TMPRSS2 IC50) it was 0.092 nM; at Factor Xa it was 2 nM; at matriptase it was 12 nM; against hepsin, 0.69 nM; against Thrombin, > 20000 nM.
With `CC(=O)N[C@@H](CO)C(=O)N[C@@H](CCCCN)C(=O)N[C@@H](CC(C)C)C(=O)N[C@@H](CCCNC(=N)N)C(=O)c1nc2ccc(C(=O)N[C@H](C(N)=O)C(C)C)cc2s1` [ZFH7116, N-[(S)-1-carbamoyl-2-methylpropyl]-2-[(S)-2-[(S)-2-[(S)-1-[(S)-2-acetylamino-3-hydroxypropionylamino]-5-aminopentylcarbonyl-amino]-4-methylvalerylamino]-5-guanidinovaleryl]-1,3-benzothiazole-6-carboxamide] (Ac-SKL[X1]V-NH2), the IC50 at HGFA (read-out: HGFA IC50) is 23 nM; on TMPRSS2, 2.5 nM; at Factor Xa it was 514 nM; on matriptase (read-out: Matriptase IC50), 14 nM; on hepsin (read-out: Hepsin IC50), 1 nM; against Thrombin it was 7530 nM.

Values taken from patent US20250171495A1, “MUTLI-TARGETED SERINE PROTEASE INHIBITORS FOR TREATMENT OF CANCER AND VIRAL INFECTION” (Washington University, priority 2023, published 2025).
